Results on 4 compounds are retold here after patent US12364681B2, “Combined MAPK and NAMPT inhibition for treatment of neuron degeneration” (The Johns Hopkins University, priority 2021, dated 2025).

For data set [1], the system named is axotomized murine DRG axons. Briefly: Axonal degeneration (degeneration index) of transected axons. In kind it is cell-based. The procedure:
(§1) The role of the DLK/LZK MAPK pathway in regulating NAD and SARM1 pathways of axonal degeneration was established. Its role in regulating levels of the NAD-synthesizing enzyme NMNAT2 after injury was explored by treating murine DRG axons with the DLK/LZK inhibitor GNE-3511 after axotomy.
To assess the therapeutic potential of post-axotomy MAPK inhibition, axons were treated with GNE-3511 at different time points before or after axotomy (2 h pre-treatment, immediately after axotomy, 0 h, or 2 and 4 hours post-injury).
Due to the different mechanism of action of MAPK and NAMPT inhibition, therapeutic synergy was further tested by treating axotomized axons with the MAPK inhibitor GNE at the time of injury and the NAMPT inhibitor FK866 at different time points (2, 4, 6 or 8 hours post injury).
Transected axons were treated with the NAMPT inhibitor FK866 after injury and NaR was added concurrently or at 3, 6, 9, or 24 hours post axotomy. Statistical analysis of degeneration index was performed by two-way ANOVA for the effect of time (F(4,32)=62.77, p<0.0001), treatment (F(5,8)=17.05, p=0.0004), and their interactions (F(20,32)=16.82, p<0.0001) with Holm-Šidák's multiple comparisons. […] See FIG. 15 (error bars indicate +/−1 SEM).
Transected axons were treated at the time of injury with the DLK inhibitor GNE-3511 or vehicle (DMSO) and with the combination of FK866/NaR either at the time of injury or with an 8-hour delay. […] Statistical analysis of degeneration index was performed by two-way ANOVA for the effect of time (F(2.143, 17.15)=49.43, p<0.0001), treatment (F(3,8)=9.58, p=0.005), and their interactions (F(18,48)=13.99, p<0.0001) with Holm-Šidák's multiple comparisons. […] See FIG. 16B (error bars indicate +/−1 SEM).

For data set [2], the system named is NAD+ pathway metabolites (NMN, NAD+, cADPR, Nam) in transected axons. The experiment in a line: Metabolite analysis of distal axons 8 hours post axotomy. In kind it is cell-based. The procedure: Axons were transected and treated with vehicle (DMSO), the NAMPT inhibitor FK866, or FK866+NaR. Axons were collected at 8 hours post axotomy for metabolite analysis. […] Statistically significant changes between treated and untreated transected axons were analyzed with one-way ANOVA and Holm-Šidák's multiple comparisons; *=p<0.05, **=p<0.01, ***=p<0.001, #=p<0.0001. Error bars indicate +/−1 SEM.
Relative changes in protein-normalized levels of metabolites in distal axons were measured at 8 hours following transection and treatment at the time of injury with the MAPK inhibitor GNE-3511, the NAMPT inhibitor FK866 in combination with NaR, or with the three compounds together.

Data set [3] concerns JNK, SCG10, NMNAT2 and α-Spectrin in murine DRG axons. The experiment in a line: Western blot of distal axons after axotomy. It is filed as cell-based. The procedure: as §1
Western blot analysis of distal axons was performed at 4 and 8 hours after transection and treatment with the DLK inhibitor GNE3511 or vehicle (DMSO).
A general note: In western blotting, separated proteins are transferred to a membrane and probed.

The test system of data set [4] is retinal ganglion cells (RGCs). The experiment in a line: Impact acceleration (IA) TBI model: RGC survival, SNCG staining of retinal whole-mounts. In kind it is in vivo, mice. As to conditions: intraperitoneal 60 mg/kg, treatment 21 days after IA; vehicle 1500 cells/mm2; p<0.05. From the text:
Experimental subjects and IA procedures Eight-week-old male C57BL/6 J wild-type mice and transgenic Dlk^fl/fl and Dlk^fl/flLzk^fl/fl mice were subjected to IA or sham injury. Male mice were chosen such as to avoid the confounding effects of sex hormones on injury outcomes. Wild-type mice and founders were purchased from Charles River Laboratories (Wilmington, MA). Animals were housed in a vivarium with a 12-h light/12-h dark cycle and given ad libitum access to food and water. All animal handling as well as surgical and postoperative procedures were carried out according to protocols approved by the Animal Care and Use Committee of the Johns Hopkins Medical Institutions.
Impact acceleration injury was performed with height weight settings generating kinetic energy of 0.45-0.5 Jupon impact, essentially as described (FIG. 21). Immediately prior to injury, the cranium was exposed and a 5 mm-thick stainless-steel disc was glued onto the skull midway between bregma and lambda sutures. Surgical procedures and injury were performed under aseptic conditions with gas anesthesia (isoflurane:oxygen:nitrous oxide=1:33:66). Immediately after injury the disc was removed the skull was checked under the surgical microscope for skull fractures. The rare animals with skull fractures were excluded from further study because such events introduce injuries variables that cannot be easily controlled. […]

The conditions of data set [5]: in vivo; cited from earlier work.
[6] abbreviates: treatment immediately after axotomy.
The mark [7] stands for this setting: GNE vs FK+NaR and vs FK+NaR+GNE.

Turning to `O=C(/C=C/c1cccnc1)NCCCCC1CCN(C(=O)c2ccccc2)CC1` [FK866], the “protection from axonal degeneration” value in data set [1] (in the absence of GNE-3511, added 2, 4, 6 or 8 hours post injury) is reported as “provided protection especially when added at 2 hours”. Also, in data set [1] (with GNE-3511 at the time of injury, FK-866 added 2, 4, 6 or 8 hours post injury), the “protection from axonal degeneration” value is “enhanced at 2, 4 and 6 hours post injury”. In data set [2], the “NAD+ degrading activity (cADPR/NAD+) relative to vehicle” value is “suppressed the NAD+ degrading activity”, the “NAD+/NMN ratio compared to vehicle” value was “increases”, the “NMN/Nam ratio compared to vehicle” value is listed as “reductions” and the “cADPR levels relative to vehicle” value is given as “only the combined treatment suppressed cADPR levels”. Moreover, in data set [2] (treatment at time of injury), the “NAD+ levels compared to vehicle treated transected axons” value is on record as “protects NAD+ levels” and the “NMN levels compared to vehicle treated transected axons” value is listed as “suppressed NMN”.
Regarding `N#Cc1ccnc(Nc2cc(C3CCN(C4COC4)CC3)cc(N3CCC(F)(F)C3)n2)c1` [GNE-3511], the “injury associated degradation of SCG10” value in data set [3] (4 and 8 hours after transection) is “suppressed the injury associated degradation of SCG10”. Moreover, the “phosphorylation of JNK” value in data set [3] (4 hours after transection, vs vehicle (DMSO), n=3) is listed as “suppressed phosphorylation of JNK”. Moreover, the “injury associated degradation of spectrin (p150 fragment to total spectrin)” value in data set [3] (8 hours after transection) was “suppressed”. The “degradation of NMNAT2 between 4 and 8 hours post-axotomy” value in data set [3] (significantly degraded in vehicle treated axons) is “not in the presence of GNE”. In data set [3] (setting [6]), the “calpain-mediated degradation of α-Spectrin” value was “ameliorated the calpain-mediated degradation”, the “degradation of NMNAT2” value was “reduced the degradation”, the “phosphorylation of SCG10” value is “reduced phosphorylation” and the “phosphorylation of the downstream JNKs” value is listed as “reduced phosphorylation”. In data set [1] (applied before (2 h pre-treatment) or immediately following injury (0 h)), the “protection from axonal degeneration” value is reported as “Significant protection”. In data set [1] (more delayed regimes (2 and 4 hours post-injury)), the “protection from axonal degeneration” value is “lesser protection”. Also, in data set [2], the “cADPR/NAD+ ratio, difference vs FK+NaR” value is recorded as “significant differences”. In addition, in data set [2] (setting [7]), the “NAD+/NMN ratio, difference between treatment groups” value is given as “significant differences” and the “Nam/NAD+ ratio, difference between treatment groups” value is recorded as “significant differences”. The “NAD+ levels compared to FK+NaR or the triple combination” value in data set [2] (treatment at time of injury) was “greater protection of NAD+ levels”.
With `NC(=O)c1ccc[n+]([C@@H]2O[C@H](CO)[C@@H](O)[C@H]2O)c1` [NaR, nicotinamide riboside], the “axon protection (degeneration index) compared to FK866 alone” value is listed as “significantly protected axons” in data set [1] (NaR added 3, 6 or 9 hours post-axotomy in the presence of FK866, up to 4 days post-injury, p<0.0001) and “no additive effect” in data set [1] (NaR added at 24 hours in the presence of FK866). Besides, the “delay of NaR supplementation after axotomy with minimal and/or no loss of efficacy in suppressing axon fragmentation” value in data set [1] (in the presence of FK866 given after injury) is “up to 9 hours”.
For `CCN(CC)CCNC(=O)c1c(C)[nH]c(/C=C2\C(=O)Nc3ccc(F)cc32)c1C` [sunitinib], the “number of surviving RGCs” value in data set [4] is given as roughly 2300 cells/mm2. The CNS penetration entry in data set [5] is “penetrates the CNS”.
